We go through twelve compounds from patent US11597724B2, “Herbicidally active 3-phenylisoxazoline-5-carboxamides of tetrahydro and dihydrofuran carboxylic acids and esters” (Bayer Aktiengesellschaft, priority 2017, dated 2023).

Common to all, as to format: in vivo
The subject of one experiment is Echinochloa crus-galli. Put plainly: Pre-emergence herbicidal activity against ECHCG. The following applies: dosage 80 g/ha, scored visually after about 3 weeks vs untreated controls (100% = plants have died, 0% = like control plants); for pest or weed control at 80 g/ha: Echinochloa crus-galli, 504 h. The source says:
(§1) 1. Pre-Emergence Herbicidal Action and Crop Plant Compatibility Seeds of monocotyledonous and dicotyledonous weed plants and crop plants are placed in plastic or wood fiber pots and covered with soil. The compounds of the invention, formulated in the form of wettable powders (WP) or as emulsion concentrates (EC), are then applied onto the surface of the covering soil as aqueous suspension or emulsion with addition of 0.5% additive at a water application rate of 600 l/ha (converted). After the treatment, the pots are placed in a greenhouse and kept under good growth conditions for the trial plants. After about 3 weeks, the effect of the preparations is scored visually in comparison with untreated controls as percentages. For example, 100% activity=the plants have died, 0% activity=like control plants. ECHCG: Echinochloa crus-galli HORMU: Hordeum murinum

In the next experiment the test system is Pharbitis purpurea. Put plainly: Pre-emergence herbicidal activity against PHBPU. Particulars: Ipomoea purpurea, 504 h, dosage 80 g/ha.
Source text: as §1, with “LOLRI: Lolium rigidum PHBPU: Pharbitis purpurea” for “ECHCG: Echinochloa crus-galli HORMU: Hordeum murinum”

In the next experiment the test system is Hordeum murinum. Put plainly: Pre-emergence herbicidal activity against HORMU. Particulars: dosage 80 g/ha; for pest or weed control at 80 g/ha: Hordeum murinum, 504 h.
Source text: as §1

A short description of experiment [1]: Pre-emergence treatment, summary over harmful plants. The following applies: 504 h, application rate of 0.08 kg of active substance or less per hectare, read-out: herbicidal action, pre-emergence treatment (very good activity).
Source text: 1. Pre-Emergence Herbicidal Action and Crop Plant Compatibility
as §1, with “Seeds” for “1. Pre-Emergence Herbicidal Action and Crop Plant Compatibility Seeds”, “plants.” for “plants. ECHCG: Echinochloa crus-galli HORMU: Hordeum murinum”
As shown by the results, compounds according to the invention such as, for example, the compounds No. I-21 and other compounds from the tables (for example I-10, I-26, I-09, I-30, I-28, I-29, I-27, I-01, I-06, I-34, I-19, I-11, I-36, I-37, I-38, I-41, I-42, I-43, I-44, I-46, I-49) have, when used for pre-emergence treatment, very good activity (80% to 100% herbicidal action) against harmful plants such as Abutilon theophrasti, Alopecurus myosuroides, Amaranthus retroflexus, Avena fatua, Echinochloa crus-galli, Hordeum murinum, Lolium rigidum, Pharbitis purpurea, Polygonum convolvulus, Setaria viridis, Stellaria media, Veronica persica and Viola tricolor at an application rate of 0.08 kg of active substance or less per hectare.

A further experiment concerns Lolium rigidum. Put plainly: Pre-emergence herbicidal activity against LOLRI. The following applies: dosage 80 g/ha; for pest or weed control at 80 g/ha: Lolium rigidum, 504 h.
Source text: as §1, with “LOLRI: Lolium rigidum PHBPU: Pharbitis purpurea” for “ECHCG: Echinochloa crus-galli HORMU: Hordeum murinum”

A further experiment has as its system Abutilon theophrasti. Put plainly: Pre-emergence herbicidal activity against ABUTH. The following applies: dosage 80 g/ha.
Source text: as §1, with “ABUTH: Abutilon theophrasti ALOMY: Alopecurus myosuroides” for “ECHCG: Echinochloa crus-galli HORMU: Hordeum murinum”

Molecules are shown by their SMILES.

As for `C=C[C@]1(C(=O)N[C@H]2CO[C@@H](C(=O)OC(C)C)C2)CC(c2cc(F)cc(F)c2)=NO1` (mixture of isomers) [I-36, isopropyl cis-4-[[(5S)-3-(3,5-difluorophenyl)-5-vinyl-4H-isoxazole-5-carbonyl]amino]tetrahydrofuran-2-carboxylate], the pest or weed control at 80 g/ha with Echinochloa crus-galli was 100%; in the experiment on Pharbitis purpurea, 90%; with Hordeum murinum, 90%; in experiment [1] it was 80 to 100%; with Lolium rigidum, 100%.
With `COC(=O)[C@H]1C[C@@H](NC(=O)C2(OC)CC(c3cc(C)cc(Br)c3)=NO2)CO1` (relative stereo) [I-08, methyl cis-4-[[3-(3-bromo-5-methylphenyl)-5-methoxy-4H-isoxazole-5-carbonyl]amino]tetrahydrofuran-2-carboxylate], in the experiment on Abutilon theophrasti, the “Pre-emergence herbicidal activity against ABUTH in %” value is on record as 100%.
With `C=C[C@]1(C(=O)N[C@H]2CO[C@@H](C(=O)OC)C2)CC(c2cc(F)cc(F)c2)=NO1` (mixture of isomers) [I-10, methyl cis-4-[[(5S)-3-(3,5-difluorophenyl)-5-vinyl-4H-isoxazole-5-carbonyl]amino]tetrahydrofuran-2-carboxylate], the pest or weed control at 80 g/ha was 100% in the experiment with Echinochloa crus-galli; 80% in the experiment with Pharbitis purpurea; 100% with Hordeum murinum; 80 to 100% in experiment [1]; 100% with Lolium rigidum. The “Pre-emergence herbicidal activity against ABUTH in %” value in the experiment on Abutilon theophrasti was 100%.
`C=C[C@]1(C(=O)N[C@H]2CO[C@@H](C(=O)OCc3ccccc3)C2)CC(c2cc(F)cc(F)c2)=NO1` (mixture of isomers) [I-37, benzyl cis-4-[[(5S)-3-(3,5-difluorophenyl)-5-vinyl-4H-isoxazole-5-carbonyl]amino]tetrahydrofuran-2-carboxylate]: the pest or weed control at 80 g/ha in the experiment on Echinochloa crus-galli was 90%; in the experiment on Pharbitis purpurea, 90%; in the experiment with Hordeum murinum it was 100%; in experiment [1], 80 to 100%; with Lolium rigidum it was 100%.
Consider `COC(=O)[C@H]1C[C@@H](NC(=O)[C@@]2(C)CC(c3cc(F)cc(F)c3)=NO2)CO1` (mixture of isomers) [I-09, methyl cis-4-[[(5R)-3-(3,5-difluorophenyl)-5-methyl-4H-isoxazole-5-carbonyl]amino]tetrahydrofuran-2-carboxylate], for which the pest or weed control at 80 g/ha is 90% with Echinochloa crus-galli and 80 to 100% in experiment [1]. In the experiment on Abutilon theophrasti, the “Pre-emergence herbicidal activity against ABUTH in %” value is on record as 100%.
With `COC(=O)C1COCC1NC(=O)[C@@]1(C)CC(c2cc(F)cc(F)c2)=NO1` (stereo partly drawn) [I-28, methyl 4-[[(5R)-3-(3,5-difluorophenyl)-5-methyl-4H-isoxazole-5-carbonyl]amino]tetrahydrofuran-3-carboxylate], the pest or weed control at 80 g/ha in the experiment on Echinochloa crus-galli is 90%; with Pharbitis purpurea, 90%; in experiment [1], 80 to 100%.
With `C=CC1(C(=O)N[C@H]2CO[C@@H](C(=O)O)C2)CC(c2cc(F)cc(F)c2)=NO1` (relative stereo) [I-21, cis-4-[[3-(3,5-difluorophenyl)-5-vinyl-4H-isoxazole-5-carbonyl]amino]tetrahydrofuran-2-carboxylic acid], the pest or weed control at 80 g/ha with Echinochloa crus-galli was 100%; in the experiment with Pharbitis purpurea it was 80%; in experiment [1] it was 80 to 100%.
As for `COC(=O)[C@H]1C[C@@H](NC(=O)C2(C)CC(c3cc(C)cc(Br)c3)=NO2)CO1` (relative stereo) [I-04, methyl cis-4-[[3-(3-bromo-5-methylphenyl)-5-methyl-4H-isoxazole-5-carbonyl]amino]tetrahydrofuran-2-carboxylate], the “Pre-emergence herbicidal activity against ABUTH in %” value in the experiment on Abutilon theophrasti turned out to be 100%.
The same measure, in the same setting: as for `COC(=O)[C@H]1C[C@@H](NC(=O)C2(OC)CC(c3ccccc3)=NO2)CO1` (relative stereo) [I-14, methyl cis-4-[(5-methoxy-3-phenyl-4H-isoxazole-5-carbonyl)amino]tetrahydrofuran-2-carboxylate], the figure is 100%.
Turning to `C=C[C@]1(C(=O)N[C@H]2CO[C@@H](C(=O)OC)C2)CC(c2cc(F)cc(F)c2)=NO1` (single isomer, unassigned) [I-11], the “Pre-emergence herbicidal activity against ECHCG in %” value in the experiment with Echinochloa crus-galli is 100%. The pest or weed control at 80 g/ha with Pharbitis purpurea was 100%; in experiment [1], 80 to 100%. In the experiment with Hordeum murinum, the “Pre-emergence herbicidal activity against HORMU in %” value is 100%. The “Pre-emergence herbicidal activity against LOLRI in %” value in the experiment on Lolium rigidum is recorded as 100%. Besides, the “Pre-emergence herbicidal activity against ABUTH in %” value in the experiment with Abutilon theophrasti turned out to be 80%.
On to `COC(=O)[C@H]1C[C@@H](NC(=O)C2(C(F)(F)F)CC(c3cc(F)cc(F)c3)=NO2)CO1` (relative stereo) [I-06, methyl cis-4-[[3-(3,5-difluorophenyl)-5-(trifluoromethyl)-4H-isoxazole-5-carbonyl]amino]tetrahydrofuran-2-carboxylate], for which the pest or weed control at 80 g/ha in the experiment with Echinochloa crus-galli was 80%; with Pharbitis purpurea, 80%; in experiment [1], 80 to 100%. In the experiment with Abutilon theophrasti, the “Pre-emergence herbicidal activity against ABUTH in %” value amounted to 100%.
For the compound `C=C[C@]1(C(=O)NC2COCC2C(=O)OC)CC(c2cc(F)cc(F)c2)=NO1` (stereo partly drawn) [I-26, methyl 4-[[(5S)-3-(3,5-difluorophenyl)-5-vinyl-4H-isoxazole-5-carbonyl]amino]tetrahydrofuran-3-carboxylate], the pest or weed control at 80 g/ha in the experiment with Echinochloa crus-galli is 90%; with Pharbitis purpurea it was 90%; in experiment [1], 80 to 100%.
